In patent publication US20090074885A1, “Reversible Hydrophobic Modification of Drugs for Improved Delivery to Cells” (Roche Madison Inc., priority 2003, published 2009):
Read-outs that look alike come from different tables or passages of the source.

Key:
[1] = tested on: Jurkat (human T-lymphocyte) cells; assay: In vitro cellular uptake by fluorescence microscopy, Jurkat; assay type: cell-based; conditions: FIG. 5B
Description: In Vitro cellular uptake of PI, RRH-PI compounds, and IV evaluated by fluorescence measurements. […] Adherent cells were plated at 2.5×10^5 cells/well on 6-well plates 24 h prior to testing. The growth media was removed from individual wells and the drug/prodrug was immediately added to the well with the mixing chamber. […] After 30 sec the drug solution was removed (aspirated) and 2 ml complete media was added to the cells. Experiments conducted with prodrug that was hydrolyzed prior to application to the cells followed a similar protocol, however the combined solution obtained after passing through the mixing chamber was collected and allowed to sit at ambient temperature for 5 min prior to application on the cells. Experiments conducted with Calcein AM (Invitrogen, 100 μl of 20 μM solution in complete media) followed a similar protocol for drug treatment (4 min treatment). Experiments conducted with SYTOX Green (Invitrogen) followed a similar protocol for drug treatment. […] Each condition was repeated in 2 or 3 wells, and the cells were immediately examined by microscopy. Fluorescent microscopy studies were conducted with a three laser LSM 510 confocal microscope, an Axiovert S100 fluorescent microscope, or an Axioplan2 fluorescent microscope (all Zeiss) equipped with filter sets for the rhodamine fluorescence channel (λex=BP 450/12, λem=LP 590 nm filter set) and the fluorescein fluorescent channel (λex=BP 546/90, λem=LP 515 nm filter set). Imaging was performed with an AxioCam digital camera (Zeiss), with AxioVision imaging software (V 4.5, Zeiss). For all images, identical camera settings and exposure times were used on comparative sample and control images. Images were processed with Photoshop (Adobe) for level and brightness using identical settings between sample and control images. For experiments conducted on Jurkat cells (8.0×10^5 cells/ml in media), the cells were isolated by centrifugation and resuspended in ITG at a density of 4.0×10^6 cells/ml. Exposure to the drug/prodrug was conducted by passing the cells in suspension in ITG (200 μl) through the mixing chamber. […]

[2] = tested on: SK-OV-3 (human ovarian carcinoma); assay: WST cytotoxicity assay, SK-OV-3; assay type: cell-based; conditions: SK-OV-3, 4 min drug exposure, read-out: Mean IC50
Description: Antiproliferative/Cytotoxic in vitro studies on PI, RRH-PI prodrugs, melphalan, and C12PMMA-melphalan. In vitro cytotoxicity testing was conducted on Hepa 1-6 (mouse hepatoma), SK-OV-3 (human ovarian carcinoma), and MC38 (mouse colon carcinoma) cells using a tetrazolium based assay (WST, Dojindo Molecular Technologies). For the WST assay, Hepa 1-6 (2.0×10^5 cells well), SK-OV-3 (7.5×10^5 cells well), and MC38 (8.5×10^5 cells well) were seeded in 1000 μL media into 12-well plates 24 h prior to testing (starting confluency ˜50%). Following removal of media, drug/prodrug solution was added drop-wise to quadruplicate wells, using the mixing chamber. Effective drug concentrations were calculated from the amount of drug added in the total volume of OS and aqueous solution. Following 4 min of drug solution exposure, the solution was removed, and 1000 μl fresh complete media was added to each well. After the cells were incubated for 24-48 h, WST-1 (20 μl of a 5 mM solution in PBS) and N-methylphenazonium methyl sulfate (PMS, 20 μl 0.2 mM solution in PBS) were added and the cells were incubated for 1-4 h. For testing with MC38 cells, the amounts of WST-1 and PMS were doubled. Following incubation, 100 μl of sample was transferred to quadruplicate wells on a 96-well plate, and the absorbance (438 nm) values were measured on a SPECTRAmax Plus^384 microplate spectrophotometer (Molecular Devices Corporation). Data represents the mean A438 values of 16 wells with standard deviation, corrected for media contribution, and normalized against cells in media with no drug/prodrug treatment (reported as % cell viability±standard deviation).
The concentration of drug (μM) that is required for 50% inhibition in vitro is reported as the IC50. The reported values were calculated from the best fit line (Excel) for a plot of effective drug concentration against % cell viability, and include the r^2 value. The reported IC50 values for multiple RRH-PI plots are reported as IC50 (μM)±standard deviation.

[3] = Qualitative 90° light scattering for particles; assay type: physicochemical; conditions: relative to ITG or PI in ITG
Description: Light Scattering analysis of prodrugs. Particle size was determined by dynamic light scattering on a Zeta Plus (Zeta Potential Analyzer, Brookhaven Instrument Corporation, λ 533 nm, 90°), and results are reported as the size of the most abundant particle (range of particle sizes, counts sec^−1). Fluorescent compounds were also analyzed for particles qualitatively, by measuring for light scattering on a Cary Eclipse Fluorescence Spectrophotometer (Varian Inc.), with λex=λem (300-800 nm, 90° detection). The presence of particles in solution results in an increase in signal detection at 90°. PI and RRH-PI prodrugs were 7.48 mM in DMSO. Melphalan and V were 50 mM in DMSO. The drug/prodrug solutions were mixed and diluted with ITG through the mixing chamber (40 μl OS and 400 μl ITG), and analyzed immediately.

[4] = Analysis of prodrug lability (rate of hydrolysis) of PI derivatives by fluorescent spectroscopy; assay type: physicochemical; conditions: for Half-life: extrapolated to pure buffer (100 mol % H2O)
Description: Analysis of prodrug lability. The prodrugs were tested for their rate of hydrolysis at pH 6.0, 7.2 and 8.5 using fluorescent spectroscopy. Lability studies for C12CON-PI and RRH-PI (rapidly reversible hydrophobic-PI) derivatives were conducted on a Cary Eclipse Fluorescence Spectrophotometer (Varian Inc.).
To solutions of PI and RRH-prodrugs of PI (7.48 μM in DMSO) were added various amounts of buffer (25 μL, 50 μL, and 100 μL of 20 mM Hepes buffer) at different pH. Upon cleavage of the hydrophobic modification and regeneration of PI, the fluorescence of the solution increased (λex=493 nm, λem=647 nm, excitation and emission slit width=5 nm, and emission PMT=600V) and was assayed as a function of time (20 min).
The resulting curves were normalized for intensity and fit to an exponential equation (Origin) to determine kdetermined for each solution. The kdetermined for each compound at appropriate pH were plotted against the mol % of H2O, and the best fit line was solved for kbuffer for 100 mol % H2O. These derived kbuffer values were used to determine the half-life of the prodrug in pure buffer according to the equation t1/2=1n2/k.

Row | Compound | cellular uptake and staining [1] | IC50 ([2]; WST 24 h after) | IC50 ([2]; WST 48 h after) | increase in 90° light scattering signal intensity [3] | k ([4]; pH 7.2) | k ([4]; pH 8.5) | cells stained [1] | Half-life ([4]; pH 7.2) | Half-life ([4]; pH 7.2, listed as BDMODS-PI (II)) | Half-life ([4]; pH 8.5) | Half-life ([4]; pH 8.5, listed as BDMODS-PI (II))
1 | CC[N+](C)(CC)CCC[n+]1c(-c2ccccc2)c2cc(N)ccc2c2ccc(N)cc21.[I-].[I-] [PI, Propidium iodide, reference compound] | stained very few cells | > 1250 µM | > 1700 µM |  |  |  |  |  |  |  | 
2 | CCCCCCCCCCCCNC(=O)CCC(=CCC(=O)O)C(=O)Nc1ccc2c(c1)c(-c1ccccc1)[n+](CCC[N+](C)(CC)CC)c1cc(NC(=O)C(=CCC(=O)O)CCC(=O)NCCCCCCCCCCCC)ccc21.[I-].[I-] [III, 3,8-bis-[2-(2 carboxyethylidene)-4-(dodecarbamoyl)-1-oxo-butylamine] 5-(3,3-diethyl-3-methylammoniumpropyl) 6-phenyl phenanthridinium diiodide] | strong cellular uptake and staining |  |  | maximum two fold increase | (5.05 min^−1) | (1.97 min^−1) | ~100% |  |  |  | 
3 | CCCCCCCCCCCCCCCCCC[Si](C)(C)Nc1ccc2c(c1)c(-c1ccccc1)[n+](CCC[N+](C)(CC)CC)c1cc(N[Si](C)(C)CCCCCCCCCCCCCCCCCC)ccc21.[I-].[I-] [II, 3,8-bis[((dimethyl)octadecylsilazyl)amine] 5-(3,3-diethyl-3-methylammoniumpropyl) 6-phenyl phenanthridinium diiodide] |  | 194 µM | 257 µM | maximum two fold increase | (3.96 min^−1) | (1.80 min^−1) |  | 11 s | 10.5 s | 23 s | 23.1 s
